Experimental data from PubChem BioAssay (NCI).
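GI50 is the concentration that inhibits growth by half. TGI: total growth inhibition.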

Key:
Assay in all cases: NCI tumour cell line growth inhibition, 384-well format
[1] = system: 786-0 renal
[2] = system: A498 renal
[3] = system: A549 NSCLC
[4] = system: BT-549 breast
[5] = system: CCRF-CEM leukemia
[6] = system: COLO 205 colon
[7] = system: DU-145 prostate
[8] = system: HCT-116 colon
[9] = system: HCT-15 colon
[10] = system: HL-60(TB) leukemia
[11] = system: HOP-62 NSCLC
[12] = system: HOP-92 NSCLC
[13] = system: HT29 colon
[14] = system: IGROV1 ovarian
[15] = system: K-562 leukemia
[16] = system: KM12 colon
[17] = system: LOX IMVI melanoma
[18] = system: M14 melanoma
[19] = system: MCF7 breast
[20] = system: MDA-MB-231 breast
[21] = system: MDA-MB-435 melanoma
[22] = system: MDA-MB-468 breast
[23] = system: MOLT-4 leukemia
[24] = system: NCI-H23 lung
[25] = system: NCI-H322M lung
[26] = system: NCI-H460 NSCLC
[27] = system: NCI/ADR-RES ovarian
[28] = system: OVCAR-3 ovarian
[29] = system: OVCAR-4 ovarian
[30] = system: OVCAR-5 ovarian
[31] = system: OVCAR-8 ovarian
[32] = system: RPMI-8226 leukemia
[33] = system: RXF 393 renal
[34] = system: SF-268 CNS
[35] = system: SF-295 CNS
[36] = system: SF-539 CNS
[37] = system: SK-MEL-2 melanoma
[38] = system: SK-MEL-5 melanoma
[39] = system: SK-OV-3 ovarian
[40] = system: SN12C renal
[41] = system: SNB-19 CNS
[42] = system: SNB-75 CNS
[43] = system: SR leukemia
[44] = system: SW-620 colon
[45] = system: TK-10 renal
[46] = system: U251 glioblastoma
[47] = system: UACC-62 melanoma

N=C(N)c1ccc2nc(-c3cc(CC(=O)N[C@@H](CC(=O)O)C(=O)O)cc(-c4cc(S(N)(=O)=O)ccc4O)c3O)[nH]c2c1
GI50 [1]: > 100 µM
TGI [1]: > 100 µM
GI50 [2]: > 100 µM
TGI [2]: > 100 µM
GI50 [3]: > 100 µM
TGI [3]: > 100 µM
GI50 [4]: > 100 µM
TGI [4]: > 100 µM
GI50 [5]: > 100 µM
TGI [5]: > 100 µM
GI50 [6]: > 100 µM
TGI [6]: > 100 µM
GI50 [7]: > 100 µM
TGI [7]: > 100 µM
GI50 [8]: > 100 µM
TGI [8]: > 100 µM
GI50 [9]: > 100 µM
TGI [9]: > 100 µM
GI50 [10]: > 100 µM
TGI [10]: > 100 µM
GI50 [11]: > 100 µM
TGI [11]: > 100 µM
GI50 [12]: > 100 µM
TGI [12]: > 100 µM
GI50 [13]: > 100 µM
TGI [13]: > 100 µM
GI50 [14]: > 100 µM
TGI [14]: > 100 µM
GI50 [15]: > 100 µM
TGI [15]: > 100 µM
GI50 [16]: > 100 µM
TGI [16]: > 100 µM
GI50 [17]: > 100 µM
TGI [17]: > 100 µM
GI50 [18]: > 100 µM
TGI [18]: > 100 µM
GI50 [19]: > 71.5 µM
TGI [19]: > 100 µM
GI50 [20]: > 100 µM
TGI [20]: > 100 µM
GI50 [21]: > 100 µM
TGI [21]: > 100 µM
GI50 [22]: > 100 µM
TGI [22]: > 100 µM
GI50 [23]: > 100 µM
TGI [23]: > 100 µM
GI50 [24]: > 100 µM
TGI [24]: > 100 µM
GI50 [25]: > 100 µM
TGI [25]: > 100 µM
GI50 [26]: > 100 µM
TGI [26]: > 100 µM
GI50 [27]: > 100 µM
TGI [27]: > 100 µM
GI50 [28]: > 100 µM
TGI [28]: > 100 µM
GI50 [29]: > 100 µM
TGI [29]: > 100 µM
GI50 [30]: > 100 µM
TGI [30]: > 100 µM
GI50 [31]: > 100 µM
TGI [31]: > 100 µM
GI50 [32]: > 100 µM
TGI [32]: > 100 µM
GI50 [33]: > 100 µM
TGI [33]: > 100 µM
GI50 [34]: > 100 µM
TGI [34]: > 100 µM
GI50 [35]: > 100 µM
TGI [35]: > 100 µM
GI50 [36]: > 100 µM
TGI [36]: > 100 µM
GI50 [37]: > 100 µM
TGI [37]: > 100 µM
GI50 [38]: > 100 µM
TGI [38]: > 100 µM
GI50 [39]: > 100 µM
TGI [39]: > 100 µM
GI50 [40]: > 100 µM
TGI [40]: > 100 µM
GI50 [41]: > 100 µM
TGI [41]: > 100 µM
GI50 [42]: > 100 µM
TGI [42]: > 100 µM
GI50 [43]: > 100 µM
TGI [43]: > 100 µM
GI50 [44]: > 100 µM
TGI [44]: > 100 µM
GI50 [45]: > 100 µM
TGI [45]: > 100 µM
GI50 [46]: > 100 µM
TGI [46]: > 100 µM
GI50 [47]: > 100 µM
TGI [47]: > 100 µM
